Consider five molecules from US20070185161A1, “Bicyclic substituted indole-derivative steroid hormone nuclear receptor modulators” (priority 2004, published 2007).

A value given as a limit tells only on which side of the number the result lay.

The target of this assay is T1, human MR (Homo sapiens, UniProt P08235).
T1 construct: The full length human MR gene is cloned from a human kidney or human brain cDNA library; made in house; host or cells: SF9 insect cells (baculovirus)
T1 sequence (P08235 1-984): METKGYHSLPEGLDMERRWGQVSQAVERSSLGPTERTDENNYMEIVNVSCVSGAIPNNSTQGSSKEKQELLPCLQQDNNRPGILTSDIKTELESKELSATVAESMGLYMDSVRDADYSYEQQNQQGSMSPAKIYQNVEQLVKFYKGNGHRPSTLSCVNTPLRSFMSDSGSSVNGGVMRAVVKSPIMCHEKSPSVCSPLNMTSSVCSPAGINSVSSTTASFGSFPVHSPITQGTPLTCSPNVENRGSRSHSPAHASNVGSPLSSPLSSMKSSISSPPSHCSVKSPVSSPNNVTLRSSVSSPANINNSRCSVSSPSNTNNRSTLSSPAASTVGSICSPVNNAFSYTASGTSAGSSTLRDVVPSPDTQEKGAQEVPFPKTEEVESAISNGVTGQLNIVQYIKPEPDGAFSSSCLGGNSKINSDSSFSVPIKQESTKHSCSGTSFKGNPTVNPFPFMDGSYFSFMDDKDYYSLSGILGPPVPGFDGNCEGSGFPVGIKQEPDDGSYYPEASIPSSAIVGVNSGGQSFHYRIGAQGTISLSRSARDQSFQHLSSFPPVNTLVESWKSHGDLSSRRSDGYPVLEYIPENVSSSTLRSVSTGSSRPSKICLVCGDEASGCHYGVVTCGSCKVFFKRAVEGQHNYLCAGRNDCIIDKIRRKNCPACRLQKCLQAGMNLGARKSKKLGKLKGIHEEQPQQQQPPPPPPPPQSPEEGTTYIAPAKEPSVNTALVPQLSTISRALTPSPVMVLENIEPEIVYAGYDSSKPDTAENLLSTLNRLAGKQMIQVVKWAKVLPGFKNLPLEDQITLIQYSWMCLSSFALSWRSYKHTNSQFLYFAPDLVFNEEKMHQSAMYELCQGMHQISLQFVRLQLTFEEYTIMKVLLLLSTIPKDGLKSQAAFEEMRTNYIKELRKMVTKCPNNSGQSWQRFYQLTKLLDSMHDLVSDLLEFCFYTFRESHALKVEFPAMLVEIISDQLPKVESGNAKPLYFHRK
Description: Mineralocorticoid Receptor Binding Assay (Method 1). Particulars: [3H]-aldosterone, racemic mixture unless otherwise indicated. Put shortly:
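Lysate of Sf9 cells expressing baculovirus full-length human MR (20-25 μg protein) incubated with 0.5 nM [3H]-aldosterone and test compound, pH 7.5 molybdate buffer, 16 h at 4 °C. Bound ligand collected by filtration and counted by scintillation. IC50 for displacement; Ki by Cheng-Prusoff.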

Regarding `CC1(c2c[nH]c3c(NS(C)(=O)=O)cccc23)CCSc2ccccc21` (centres unmarked) [Example 37, N-[3-(4-Methyl-thiochroman-4-yl)-1-indol-7-yl]-methanesulfonamide], the Ki – broadly, the equilibrium dissociation constant of an inhibitor or competing ligand from its target – was at most 500 nM.

As for `CC1(c2c[nH]c3c(NS(C)(=O)=O)cccc23)CCCCc2ccccc21` (centres unmarked) [Example 38, N-[3-(5-Methyl-6,7,8,9-tetrahydro-5H-benzocyclohepten-5-yl)-1H-indol-7-yl]-methanesulfonamide], the Ki is at most 500 nM.

In the case of `CS(=O)(=O)Nc1cccc2c(C3(CCCI)CCc4cc(F)ccc43)c[nH]c12` (centres unmarked) [Example 41, N-{3-[5-Fluoro-1-(3-iodo-propyl)-indan-1-yl]-1H-indol-7-yl}-methanesulfonamide], the Ki is at most 500 nM.

With `CNCCCC1(c2c[nH]c3c(NS(C)(=O)=O)cccc23)CCc2cc(F)ccc21` (centres unmarked) [Example 42, N-{3-[5-Fluoro-1-(3-methylamino-propyl)-indan-1-yl]-1H-indol-7-yl}-methanesulfonamide], the inhibition constant Ki is at most 500 nM.

Regarding `CS(=O)(=O)Nc1cccc2c(C3(CCCN4CCOCC4)CCc4cc(F)ccc43)c[nH]c12` (centres unmarked) [Example 44, N-{3-[5-Fluoro-1-(3-morpholin-4-yl-propyl)-indan-1-yl]-1H-indol-7-yl}-methanesulfonamide], the Ki was at most 500 nM.
